In paper PMC7031696 (Cell chemical biology, 2019):
Where two headings read alike, the source gives them in different places.

Key:
[1] = test system: Plasmodium falciparum 3D7-A10 parasites; experiment: Stage specificity assay (8-h exposure of synchronized stages, IC50^8h); format: cell-based; conditions: for IC50: Plasmodium falciparum
[2] = test system: 3D7-MR4 trophozoite parasite-infected RBCs; experiment: Metabolomic profiling (hydrophilic metabolite changes, UHPLC-MS); format: cell-based, Plasmodium falciparum
[3] = test system: asynchronous 3D7-A10 parasite cultures; experiment: Standard 72-h exposure asexual blood stage susceptibility assay (IC50^72h); format: cell-based, Plasmodium falciparum; conditions: Plasmodium falciparum, 3D7, 72 h, read-out: Overall (72hr assay) Mean IC50 (IC50^72h)

Ratio lowest IC50 8hr/IC50 72hr ([1]; 3D7-A10): 1.1 | IC50 [3]: 63.5 nM
SMILES: CNc1nc(NCCCN(C)C)c2sc(-c3cccc(C(F)(F)F)c3)cc2n1 [MMV668311]
IC50 ([1]; 3D7, read-out: Early rings Mean IC50 (IC50^8h), 8-h exposure 0–8 hr, 3D7-A10, survival at 60 h): 140 nM | IC50 ([1]; 3D7, read-out: Early trophozoites Mean IC50 (IC50^8h), 8-h exposure 16–24 hr, 3D7-A10, survival at 60 h): 68.9 nM | IC50 ([1]; 3D7, read-out: Late rings Mean IC50 (IC50^8h), 8-h exposure 8–16 hr, 3D7-A10, survival at 60 h): 97.7 nM | IC50 ([1]; 3D7, read-out: Late trophozoites Mean IC50 (IC50^8h), 8-h exposure 24–32 hr, 3D7-A10, survival at 60 h): 122 nM | IC50 ([1]; 3D7, read-out: Schizonts Mean IC50 (IC50^8h), 8-h exposure 32–40 hr, 3D7-A10, survival at 60 h): 382 nM | Stage of peak activity (Figure 6) ([1]; period when the parasite was most susceptible (lowest IC50^8h)): rings and trophozoites | changes within the set of metabolites detected (low fold change group) ([2]; 10 × IC50^72h, 2.5 hr, trophozoites): did not induce major changes | Log2(fold changes) 3-phosphoglycerate ([2]; metabolite 3-phosphoglycerate, log2 fold change): 0.1799 | Log2(fold changes) 4-Pyridoxic acid ([2]; metabolite 4-Pyridoxic acid, log2 fold change): 0.0000 | Log2(fold changes) 4-aminobutyrate ([2]; metabolite 4-aminobutyrate, log2 fold change): 0.0013 | Log2(fold changes) 4-phosphopantetheine ([2]; metabolite 4-phosphopantetheine, log2 fold change): 0.0000 | Log2(fold changes) 4-phosphopantothenate ([2]; metabolite 4-phosphopantothenate, log2 fold change): 0.0507 | Log2(fold changes) 5-aminopentanoic acid ([2]; metabolite 5-aminopentanoic acid, log2 fold change): 0.0000 | Log2(fold changes) 5-methyl-THF ([2]; metabolite 5-methyl-THF, log2 fold change): 0.0000 | Log2(fold changes) 5-phosphoribosyl-1-pyrophosphate ([2]; metabolite 5-phosphoribosyl-1-pyrophosphate, log2 fold change): -0.0449 | Log2(fold changes) 6-phospho-D-gluconate ([2]; metabolite 6-phospho-D-gluconate, log2 fold change): 0.0744 | Log2(fold change) HVDD ([2]; metabolite HVDD): 0.6397 | Log2(fold change) Hydroxyisocaproic acid ([2]; metabolite Hydroxyisocaproic acid): 0.0000 | Log2(fold change) IDP ([2]; metabolite IDP): 0.0000 | Log2(fold change) IMP ([2]; metabolite IMP): 0.0136 | Log2(fold change) Inositol ([2]; metabolite Inositol): 0.0000 | Log2(fold change) Isopentyl-PP ([2]; metabolite Isopentyl-PP): 0.0000 | Log2(fold change) L-arginino-succinate ([2]; metabolite L-arginino-succinate): 0.0000 | Log2(fold change) LD ([2]; metabolite LD): 0.0000 | Log2(fold change) Myristoyl/tetradecanoyl-CoA ([2]; metabolite Myristoyl/tetradecanoyl-CoA): 0.0000 | Log2(fold change) N-Acetyl-L-alanine ([2]; metabolite N-Acetyl-L-alanine): 0.2894 | Log2(fold change) N-acetyl-L-ornithine ([2]; metabolite N-acetyl-L-ornithine): 0.9240 | Log2(fold change) N-acetyl-glucosamine-1/6-phosphate ([2]; metabolite N-acetyl-glucosamine-1/6-phosphate): -0.0813 | Log2(fold change) N-acetyl-glutamate ([2]; metabolite N-acetyl-glutamate): 0.1520 | Log2(fold change) N-acetyl-glutamine ([2]; metabolite N-acetyl-glutamine): 0.0000 | Log2(fold change) N-carbamoyl-L-aspartate ([2]; metabolite N-carbamoyl-L-aspartate): 0.0640 | Log2(fold change) NAD+ ([2]; metabolite NAD+): 0.0000 | Log2(fold change) NADH ([2]; metabolite NADH): 0.1408 | Log2(fold change) NADP+ ([2]; metabolite NADP+): -0.0507 | Log2(fold change) NADPH ([2]; metabolite NADPH): 0.0063 | Log2(fold change) O-acetyl-L-serine ([2]; metabolite O-acetyl-L-serine): 0.0000 | Log2(fold change) Octoluse 8/1P ([2]; metabolite Octoluse 8/1P): 0.0000 | Log2(fold change) Octoluse Bisphosphate ([2]; metabolite Octoluse Bisphosphate): -0.0578 | Log2(fold change) PD ([2]; metabolite PD): -0.3993 | Log2(fold change) PE ([2]; metabolite PE): 0.0346 | Log2(fold change) PEE ([2]; metabolite PEE): 0.4823 | Log2(fold change) PEEK ([2]; metabolite PEEK): 0.0000 | Log2(fold change) PVNF ([2]; metabolite PVNF): 0.0144 | Log2(fold change) Pyroglutamic acid ([2]; metabolite Pyroglutamic acid): 0.0000 | Log2(fold change) Pyrophosphate ([2]; metabolite Pyrophosphate): 0.0000 | Log2(fold change) Ribose-5-phosphate ([2]; metabolite Ribose-5-phosphate): -0.1895 | Log2(fold change) S-adenosyl-L-homocysteine ([2]; metabolite S-adenosyl-L-homocysteine): -0.2447 | Log2(fold change) S-adenosyl-L-methioninamine ([2]; metabolite S-adenosyl-L-methioninamine): 0.0000 | Log2(fold change) S-adenosyl-L-methionine ([2]; metabolite S-adenosyl-L-methionine): 0.0000 | Log2(fold change) S-methyl-5'-thioadenosine ([2]; metabolite S-methyl-5'-thioadenosine): 0.0000 | Log2(fold change) SD ([2]; metabolite SD): 0.2373 | Log2(fold change) SDL ([2]; metabolite SDL): 0.0000 | Log2(fold change) SID ([2]; metabolite SID): 0.1033 | Log2(fold change) Sedoheptulose bisphosphate ([2]; metabolite Sedoheptulose bisphosphate): 0.1946 | Log2(fold change) Thiamine pyrophosphate ([2]; metabolite Thiamine pyrophosphate): 0.0000 | Log2(fold changes) UDP-D-glucose ([2]; metabolite UDP-D-glucose, log2 fold change): 0.0458 | Log2(fold changes) UDP-D-glucuronate ([2]; metabolite UDP-D-glucuronate, log2 fold change): -0.0320 | Log2(fold changes) UDP-N-acetyl-glucosamine ([2]; metabolite UDP-N-acetyl-glucosamine, log2 fold change): -0.0391 | Log2(fold changes) UDP ([2]; metabolite UDP, log2 fold change): -0.7320 | Log2(fold changes) UMP ([2]; metabolite UMP, log2 fold change): -0.3054 | Log2(fold changes) UTP ([2]; metabolite UTP, log2 fold change): 0.0564 | Log2(fold change) hydroxyphenylpyruvate ([2]; metabolite hydroxyphenylpyruvate): 0.0000 | Log2(fold change) hydroxyproline/Aminolevulinate ([2]; metabolite hydroxyproline/Aminolevulinate): 0.0878 | Log2(fold change) hypoxanthine ([2]; metabolite hypoxanthine): 0.2077 | Log2(fold change) indole ([2]; metabolite indole): 0.0000 | Log2(fold change) inosine ([2]; metabolite inosine): 0.0666 | Log2(fold change) isoleucine ([2]; metabolite isoleucine): 0.1965 | Log2(fold change) lactate ([2]; metabolite lactate): 0.0645 | Log2(fold change) leucine ([2]; metabolite leucine): 0.2550 | Log2(fold change) lysine ([2]; metabolite lysine): 0.0000 | Log2(fold change) malate ([2]; metabolite malate): 0.0044 | Log2(fold change) maleic acid ([2]; metabolite maleic acid): -0.0062 | Log2(fold change) methionine ([2]; metabolite methionine): 0.4374 | Log2(fold change) myo-inositol ([2]; metabolite myo-inositol): 0.0000 | Log2(fold change) nicotinamide mononucleotide ([2]; metabolite nicotinamide mononucleotide): 0.0000 | Log2(fold change) nicotinate ([2]; metabolite nicotinate): 0.1094 | Log2(fold change) ornithine ([2]; metabolite ornithine): 0.0000 | Log2(fold change) orotate ([2]; metabolite orotate): -0.2365 | Log2(fold change) orotidine-5'-phosphate ([2]; metabolite orotidine-5'-phosphate): -0.1452 | Log2(fold change) oxaloacetate ([2]; metabolite oxaloacetate): 0.0000 | Log2(fold change) p-aminobenzoate ([2]; metabolite p-aminobenzoate): 0.0000 | Log2(fold change) p-hydroxybenzoate ([2]; metabolite p-hydroxybenzoate): 0.0000 | Log2(fold change) pantothenate ([2]; metabolite pantothenate): -0.0310 | Log2(fold change) phenylalanine ([2]; metabolite phenylalanine): 0.2649 | Log2(fold change) phenylpyruvate ([2]; metabolite phenylpyruvate): 0.0000 | Log2(fold change) phosphoenolpyruvate ([2]; metabolite phosphoenolpyruvate): 0.2026 | Log2(fold change) prephenate ([2]; metabolite prephenate): 0.0000 | Log2(fold change) proline ([2]; metabolite proline): 0.1500 | Log2(fold change) pyridoxine ([2]; metabolite pyridoxine): 0.2387 | Log2(fold change) pyruvate ([2]; metabolite pyruvate): 0.0542 | Log2(fold change) riboflavin ([2]; metabolite riboflavin): 0.0000 | Log2(fold change) ribose ([2]; metabolite ribose): 0.4509 | Log2(fold change) ribose-phosphate ([2]; metabolite ribose-phosphate): -0.2314 | Log2(fold change) ribulose-5-phosphate ([2]; metabolite ribulose-5-phosphate): -0.1585 | Log2(fold change) serine ([2]; metabolite serine): 0.1402 | Log2(fold change) sn-glycerol-3-phosphate ([2]; metabolite sn-glycerol-3-phosphate): 0.1282 | Log2(fold change) succinate/Methylmalonic acid ([2]; metabolite succinate/Methylmalonic acid): 0.1707 | Log2(fold change) succinyl-CoA/methylmalonyl-CoA ([2]; metabolite succinyl-CoA/methylmalonyl-CoA): 0.2947 | Log2(fold change) taurine ([2]; metabolite taurine): 0.0000 | Log2(fold change) thiamine ([2]; metabolite thiamine): 0.0000 | Log2(fold change) threonine/homoserine ([2]; metabolite threonine/homoserine): 0.3600 | Log2(fold change) thymidine ([2]; metabolite thymidine): 0.0000 | Log2(fold changes) thymine ([2]; metabolite thymine, log2 fold change): 0.0000 | Log2(fold changes) trehalose-6-Phosphate ([2]; metabolite trehalose-6-Phosphate, log2 fold change): 0.0000 | Log2(fold changes) tryptophan ([2]; metabolite tryptophan, log2 fold change): 0.2172 | Log2(fold changes) tyrosine ([2]; metabolite tyrosine, log2 fold change): 0.2350 | Log2(fold changes) uridine ([2]; metabolite uridine, log2 fold change): 0.0000
